Experimental findings from US10087188B2, “Benzamide imidazopyrazine Btk inhibitors” (MERCK SHARP & DOHME CORP., priority 2014, dated 2018) are described below.

Where two headings read alike, the source gives them in different places.

In test [1] the target is BTK enzyme (recombinant full-length BTK, hBTK) (Homo sapiens (Human), UniProt Q06187). Briefly: Btk enzyme activity assay, LANCE TR-FRET. The format is biochemical. The following applies: 50 pM hBTK, 2 μM biotin-A5-peptide, 25 μM ATP; 60 minute compound & enzyme incubation; read-out: BTK binding IC50. Here is the method: Btk Enzyme Activity Assay Methods
Chain of BTK enzyme (recombinant full-length BTK, hBTK) (Q06187 whole entry): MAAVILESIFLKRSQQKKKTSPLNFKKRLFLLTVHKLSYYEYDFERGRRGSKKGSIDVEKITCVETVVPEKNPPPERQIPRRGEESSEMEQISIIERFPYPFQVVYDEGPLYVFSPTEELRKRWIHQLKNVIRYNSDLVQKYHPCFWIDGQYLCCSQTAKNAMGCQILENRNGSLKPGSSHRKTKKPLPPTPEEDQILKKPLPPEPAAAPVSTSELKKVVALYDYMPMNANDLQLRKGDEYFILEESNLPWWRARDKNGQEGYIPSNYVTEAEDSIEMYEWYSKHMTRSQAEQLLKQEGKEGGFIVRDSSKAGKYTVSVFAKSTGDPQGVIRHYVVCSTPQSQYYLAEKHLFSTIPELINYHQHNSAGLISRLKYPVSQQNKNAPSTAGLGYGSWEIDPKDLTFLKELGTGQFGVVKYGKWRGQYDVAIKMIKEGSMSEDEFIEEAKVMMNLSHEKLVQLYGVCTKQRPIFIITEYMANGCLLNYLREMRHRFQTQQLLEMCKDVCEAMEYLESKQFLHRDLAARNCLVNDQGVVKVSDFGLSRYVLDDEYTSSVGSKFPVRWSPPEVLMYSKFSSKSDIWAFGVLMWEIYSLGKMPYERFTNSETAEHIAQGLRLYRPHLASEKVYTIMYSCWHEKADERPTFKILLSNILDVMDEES
BTK enzymatic activity was determined with the LANCE (Lanthanide Chelate Excite) TR-FRET (Time-resolved fluorescence resonance energy transfer) assay. […] After 60 minutes incubation with detection reagents, reaction plates were read on a PerkinElmer EnVision plate reader using standard TR-FRET protocol.

In another test the test system is HeLa cells. The test is described as follows: [3H] Adenosine uptake assay. Type of test: cell-based. The following applies: accumulation of tritiated adenosine into HeLa cells, compound concentration range 10 μM to 0.032 nM, read-out: ADU inhibition IC50 (adenosine uptake inhibition potency). In short, it runs like this:
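Accumulation of tritiated adenosine in adherent HeLa cells, detected by scintillant-plate coincidence counting, gives IC50 via 4-parameter robust fit. Compound (constant 0.25% DMSO) applied 30 min ahead, then 60 min radiolabel exposure (added from 500 nM solution), ambient conditions, HBSS with 5% FBS.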

Usually IC50 stands for the concentration needed to halve the response being measured.

As to `C[C@@]1(C(=O)O)CCC[C@H](c2nc(-c3ccc(C(=O)Nc4cc(C5CC5)ccn4)cc3)c3c(N)nccn23)C1` [Example 159, (1R,3S)-3-(8-amino-1-{4-[(4-cyclopropylpyridin-2-yl)carbamoyl]phenyl}imidazo[1,5-a]pyrazin-3-yl)-1-methylcyclohexane-carboxylic acid], the IC50 in test [1] is 1.1 nM; in the test on HeLa cells (Homo sapiens, HeLa), 3.02 µM.
For `C[C@@]1(C(=O)O)CCC[C@H](c2nc(-c3ccc(C(=O)Nc4cc(C5CC5)ccn4)cc3F)c3c(N)nccn23)C1` [Example 160, (1R,3S)-3-(8-amino-1-{4-[(4-cyclopropylpyridin-2-yl)carbamoyl]-2-fluorophenyl}imidazo [1,5-a]pyrazin-3-yl)-1-methylcyclohexane-carboxylic acid], in that order: 0.96 nM and 4.51 µM.
Take `Nc1nccn2c(C34CCC(C(=O)O)(CC3)CC4)nc(-c3ccc(C(=O)Nc4cc(C(F)(F)F)ccn4)cc3O)c12` [Example 161, 4-[8-amino-1-(2-hydroxy-4-{[4-(trifluoromethyl)pyridin-2-yl]carbamoyl}phenyl)imidazo[1,5-a]pyrazin-3-yl]bicyclo[2.2.2] octane-1-carboxylic acid]: the IC50 amounted to 0.41 nM in test [1] and 0.531 µM with HeLa cells (Homo sapiens, HeLa).
With `CC1(C(=O)O)CCC(c2nc(-c3ccc(C(=O)Nc4cc(C(F)(F)F)ccn4)cc3)c3c(N)ncc(Cl)n23)CC1` (stereo not shown) [Example 162, 4-[8-amino-5-chloro-1-(4-{[4-(trifluoromethyl)pyridin-2-yl]carbamoyl}phenyl)imidazo[1,5-a]pyrazin-3-yl]-1-methylcyclohexane-carboxylic acid], the IC50 came to 2.3 nM in test [1] and 5.54 µM in the test with HeLa cells (Homo sapiens, HeLa).
The matching figures for `CC1(C(=O)O)CCC(c2nc(-c3ccc(C(=O)Nc4cc(C(F)(F)F)ccn4)cc3F)c3c(N)ncc(Cl)n23)CC1` (stereo not shown) [Example 163, 4-[8-amino-5-chloro-1-(2-fluoro-4-{[4-(trifluoromethyl)pyridin-2-yl]carbamoyl}phenyl)imidazo[1,5-a]pyrazin-3-yl]-1-methylcyclohexane-carboxylic acid]: 1.9 nM and 6.76 µM.
Regarding `CC1(C(=O)O)CCC(c2nc(-c3ccc(C(=O)Nc4cc(C5CC5)ccn4)cc3F)c3c(N)ncc(Cl)n23)CC1` (stereo not shown) [Example 164, 4-(8-amino-5-chloro-1-{4-[(4-cyclopropylpyridin-2-yl)carbamoyl]-2-fluorophenyl}imidazo [1,5-a]pyrazin-3-yl)-1-methylcyclohexane-carboxylic acid], the IC50 in test [1] stood at 33 nM; in the test with HeLa cells (Homo sapiens, HeLa), 6.17 µM.
With `CCOc1cc(C(=O)Nc2cc(C(F)(F)F)ccn2)ccc1-c1nc(C2CCC(C)(C(=O)O)CC2)n2c(Cl)cnc(N)c12` (stereo not shown) [Example 165, 4-[8-amino-5-chloro-1-(2-ethoxy-4-{[4-(trifluoromethyl)pyridin-2-yl]carbamoyl}phenyl)imidazo[1,5-a]pyrazin-3-yl]-1-methylcyclohexane-carboxylic acid], the IC50 is 4.4 nM in test [1] and 10 µM with HeLa cells (Homo sapiens, HeLa).
For `COc1cc(C(=O)Nc2cc(C(F)(F)F)ccn2)ccc1-c1nc(C2CCC(C)(C(=O)O)CC2)n2c(Cl)cnc(N)c12` (stereo not shown) [Example 166, 4-[8-amino-5-chloro-1-(2-methoxy-4-{[4-(trifluoromethyl)pyridin-2-yl]carbamoyl}phenyl)imidazo[1,5-a]pyrazin-3-yl]-1-methylcyclohexane-carboxylic acid], in that order: 4.3 nM and 10 µM.
As for `Nc1nccn2c([C@@H]3C[C@@H]3C(=O)O)nc(-c3ccc(C(=O)Nc4cc(C(F)(F)F)ccn4)cc3)c12` [Example 167, (1S,2R)-2-[8-amino-1-(4-{[4-(trifluoromethyl)pyridin-2-yl]carbamoyl}phenyl)imidazo[1,5-a]pyrazin-3-yl]cyclopropane-carboxylic acid], the IC50 came out at 760 nM in test [1] and 10 µM in the test on HeLa cells (Homo sapiens, HeLa).
The matching figures for `Nc1nccn2c(C34CCC(C(=O)O)(CC3)CC4)nc(-c3ccc(C(=O)Nc4cc(C(F)(F)F)ccn4)cc3)c12` [Example 168, 4-[8-amino-1-(4-{[4-(trifluoromethyl)pyridin-2-yl]carbamoyl}phenyl)imidazo[1,5-a]pyrazin-3-yl]bicyclo[2.2.2] octane-1-carboxylic acid]: 0.13 nM and 0.308 µM.
For `Nc1nccn2c(C34CCC(C(=O)O)(CC3)CC4)nc(-c3ccc(C(=O)Nc4cc(C5CC5)ccn4)cc3)c12` [Example 169, 4-(8-amino-1-{4-[(4-cyclopropylpyridin-2-yl)carbamoyl]phenyl}imidazo[1,5-a]pyrazin-3-yl)bicyclo[2.2.2] octane-1-carboxylic acid], in that order: 0.19 nM and 0.276 µM.
For `Nc1nccn2c(C34CCC(C(=O)O)(CC3)CC4)nc(-c3ccc(C(=O)Nc4cc(C(F)(F)F)ccn4)cc3F)c12` [Example 170, 4-[8-amino-1-(2-fluoro-4-{[4-(trifluoromethyl)pyridin-2-yl]carbamoyl}phenyl)imidazo[1,5-a]pyrazin-3-yl]bicyclo[2.2.2] octane-1-carboxylic acid], in that order: 0.16 nM and 0.623 µM.
For `COc1cc(C(=O)Nc2cc(C(F)(F)F)ccn2)ccc1-c1nc(C23CCC(C(=O)O)(CC2)CC3)n2ccnc(N)c12` [Example 171, 4-[8-amino-1-(2-methoxy-4-{[4-(trifluoromethyl)pyridin-2-yl]carbamoyl}phenyl)imidazo[1,5-a]pyrazin-3-yl]bicyclo[2.2.2] octane-1-carboxylic acid], the IC50 was found to be 0.29 nM in test [1] and 6.88 µM with HeLa cells (Homo sapiens, HeLa).
`CCOc1cc(C(=O)Nc2cc(C(F)(F)F)ccn2)ccc1-c1nc(C23CCC(C(=O)O)(CC2)CC3)n2c(F)cnc(N)c12` [Example 173, 4-[8-amino-1-(2-ethoxy-4-{[4-(trifluoromethyl)pyridin-2-yl]carbamoyl}phenyl)-5-fluoroimidazo[1,5-a]pyrazin-3-yl]bicyclo[2.2.2] octane-1-carboxylic acid]: the IC50 was 2 nM in test [1] and 10 µM with HeLa cells (Homo sapiens, HeLa).
Take `CCOc1cc(C(=O)Nc2cc(C(F)(F)F)ccn2)ccc1-c1nc(C23CCC(C(=O)O)(CC2O)C(O)C3)n2ccnc(N)c12` (stereo not shown) [Example 174, 4-(8-amino-1-(2-ethoxy-4-((4-(trifluoromethyl)pyridin-2-yl)carbamoyl)phenyl)imidazo[1,5-a]pyrazin-3-yl)-2,5-dihydroxybicyclo[2.2.2]octane-1-carboxylic acid]: the IC50 in test [1] was determined as 3.9 nM; in the test on HeLa cells (Homo sapiens, HeLa), 10 µM.
As for `C[C@H]1CO[C@@H](c2nc(-c3ccc(C(=O)Nc4cc(C(F)(F)F)ccn4)cc3)c3c(N)nccn23)CN1C(=O)C12CC(C(=O)O)(C1)C2` [Example 175, 3-((2R,5S)-2-(8-amino-1-(4-((4-(trifluoromethyl)pyridin-2-yl)carbamoyl)phenyl)imidazo[1,5-a]pyrazin-3-yl)-5-methylmorpholine-4-carbonyl)bicyclo[1.1.1]pentane-1-carboxylic acid], the IC50 in test [1] amounted to 0.37 nM; in the test with HeLa cells (Homo sapiens, HeLa), 10 µM.
Regarding `CC1(C(=O)O)CCC(N2CCO[C@@H](c3nc(-c4ccc(C(=O)Nc5cc(C(F)(F)F)ccn5)cc4)c4c(N)nccn34)C2)CC1` (stereo partly drawn) [Example 176, (R)-4-(2-(8-amino-1-(4-((4-(trifluoromethyl)pyridin-2-yl)carbamoyl)phenyl)imidazo[1,5-a]pyrazin-3-yl)morpholino)-1-methylcyclohexanecarboxylic acid], the IC50 in test [1] was 0.49 nM; with HeLa cells (Homo sapiens, HeLa), 1.32 µM.
In the case of `COc1cc(C(=O)Nc2cc(C(F)(F)F)ccn2)ccc1-c1nc([C@H]2CN(C(=O)C34CC(C(=O)O)(C3)C4)[C@@H](C)CO2)n2ccnc(N)c12` [Example 177, 3-({(2R,5S)-2-[8-amino-1-(2-methoxy-4-{[4-(trifluoromethyl)pyridin-2-yl]carbamoyl}phenyl)imidazo [1,5-a]pyrazin-3-yl]-5-methylmorpholin-4-yl}carbonyl)bicyclo[1.1.1] pentane-1-carboxylic acid], the half-inhibitory concentration (IC50) in test [1] turned out to be 0.76 nM; with HeLa cells (Homo sapiens, HeLa), 10 µM.
Consider `Nc1nccn2c([C@H]3CN(C4CC(C(=O)O)C4)CCO3)nc(-c3ccc(C(=O)Nc4cc(C(F)(F)F)ccn4)cc3)c12` (stereo partly drawn) [Example 179, 3-{(2R)-2-[8-amino-1-(4-{[4-(trifluoromethyl)pyridin-2-yl]carbamoyl}phenyl)imidazo [1,5-a]pyrazin-3-yl]morpholin-4-yl}cyclobutanecarboxylic acid], for which the IC50 in test [1] was 0.93 nM; in the test on HeLa cells (Homo sapiens, HeLa), 4.73 µM.
As to `COc1cc(C(=O)Nc2cc(C(F)(F)F)ccn2)ccc1-c1nc([C@H]2CN(C3CCC(C)(C(=O)O)CC3)CCO2)n2ccnc(N)c12` (stereo partly drawn) [Example 180, 4-{(2R)-2-[8-amino-1-(2-methoxy-4-{[4-(trifluoromethyl)pyridin-2-yl]carbamoyl}phenyl)imidazo [1,5-a]pyrazin-3-yl]morpholin-4-yl}-1-methylcyclohexanecarboxylic acid], the IC50 in test [1] is 1.3 nM; in the test on HeLa cells (Homo sapiens, HeLa), 6.42 µM; with HeLa cells, 3.94 µM.
On to `COc1cc(C(=O)Nc2cc(C(F)(F)F)ccn2)ccc1-c1nc([C@H]2CN(C3CCC(C)(C(=O)O)CC3)[C@@H](C)CO2)n2ccnc(N)c12` (stereo partly drawn) [Example 181, 4-{(2R,5S)-2-[8-amino-1-(2-methoxy-4-{[4-(trifluoromethyl)pyridin-2-yl]carbamoyl}phenyl)imidazo [1,5-a]pyrazin-3-yl]-5-methylmorpholin-4-yl}-1-methylcyclohexanecarboxylic acid], for which the IC50 in test [1] was found to be 1.8 nM; in the test on HeLa cells (Homo sapiens, HeLa) it was 2.33 µM.
